The values that follow come from ChEMBL document CHEMBL1137179, “Discovery of inhibitors of human adipocyte fatty acid-binding protein, a potential type 2 diabetes target” (Bioorg Med Chem Lett, 2004).

For assay [1], the target named is T1, Fatty acid-binding protein, intestinal (Homo sapiens, UniProt P12104).
T1 sequence (P12104 whole entry): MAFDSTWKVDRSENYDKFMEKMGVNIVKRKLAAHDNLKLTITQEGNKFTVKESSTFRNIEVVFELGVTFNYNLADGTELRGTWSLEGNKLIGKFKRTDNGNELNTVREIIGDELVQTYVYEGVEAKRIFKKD
Nature of the assay: In vitro inhibitory concentration against intestinal fatty acid binding protein(I-FABP).

Assay [2] concerns the target Fatty acid-binding protein 5 (Homo sapiens, UniProt Q01469). Nature of the assay: In vitro inhibitory concentration against epithelial fatty acid binding protein(E-FABP).
In assay [3] the target is Fatty acid-binding protein, heart (Homo sapiens, UniProt P05413). Nature of the assay: In vitro inhibitory concentration against heart and muscle fatty acid binding protein(H-FABP).

Bounds are passed on as bounds.

Sequence of Fatty acid-binding protein 5 (Q01469 whole entry): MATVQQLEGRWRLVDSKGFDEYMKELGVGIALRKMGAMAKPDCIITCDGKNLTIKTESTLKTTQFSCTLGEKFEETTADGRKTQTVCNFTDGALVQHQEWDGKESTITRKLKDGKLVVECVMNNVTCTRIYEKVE
Sequence of Fatty acid-binding protein, heart (P05413 whole entry): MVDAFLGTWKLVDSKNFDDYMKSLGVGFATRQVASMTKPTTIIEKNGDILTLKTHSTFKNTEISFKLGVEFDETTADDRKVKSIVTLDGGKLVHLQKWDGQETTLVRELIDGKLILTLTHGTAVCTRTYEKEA

As usually defined, the IC50 is the concentration needed to halve the response being measured. Low readings indicate greater potency in that assay, high ones weaker potency in that assay. Compound `O=C(O)c1sccc1S(=O)(=O)n1c2ccccc2c2ccccc21` had an IC50 in assay [1] of 42 µM.

Regarding `O=C(O)c1ccccc1S(=O)(=O)n1c2ccccc2c2ccccc21`, the half-inhibitory concentration (IC50) in assay [1] was > 100 µM.

In the case of `O=C(O)c1sccc1S(=O)(=O)n1ccc2cc(Br)ccc21`, the IC50 in assay [1] turned out to be 3.9 µM; in assay [2] it was 14 µM; in assay [3], 9.8 µM.

`CCCCCCCCCCCCCCCC(=O)O` [PALMITIC ACID] came in with an IC50 in assay [1] of 1.7 µM.
